“Also recorded” adds a separate entry of the source. Read-outs that look alike come from different tables or passages of the source.
What was measured:
NCTC cells = assay: MTT cell viability assay, NCTC cells; type: cell-based; settings: Mus musculus, 48 h, read-out: IC50 (μM) Mean ± SD
Protocol: (§1) All cell lines were purchased from the American Type Culture Collection (ATCC). The cell lines were growth at 37°C under 5% CO2 under humidified atmosphere. The cell lines K562 (derived from patients during the blast crisis phase of CML and IM sensitive), K562-R (IM resistance human CML), KmycBT15I (KBTI; IM resistant human CML, expressing the Bcr-Abl […] mutant), HEL (human erythroleukemia), HL60 (human acute myeloid leukemia), MOLM-13 (human acute myeloid leukemia), MV4.11 (human acute monocytic leukemia), HCT-15 (human colorectal adenocarcinoma), PC3 (human prostate cancer), MCF7 (human breast cancer), NCTC3749 (mouse lymphoma) as well as the MRC.5 cells (non-malignant human lung fibroblasts) were maintained in RPMI-1640 medium. The cell lines L1210 (mouse lymphocytic leukemia cells), Raw (mouse macrophage), HeLa (human epithelial cervix cancer), U-2 OS (human osteosarcoma), MG63 (human osteosarcoma) and T47D (human breast cancer adenocarcinoma) were maintained in DMEM. HEK293 cells stably expressing the GH receptor (HEKGHR) were maintained in DMEM-F12 medium. […]
(§2) Cells were seeded in 96-well plates (BD Falcon, France) at exponential growth density (5000–20000 cells/well) and treated with vehicle (0.05% DMSO) or compound (0.01 to 10 μM) for 48–72 h. […] Optical density was measured at 595 nm with the iMark Microplate Reader (BioRad, CA, USA).

K562 cells = assay: Live-cell imaging (IncuCyte HD) of proliferation and cytotoxicity, K562 cells; type: cell-based, human; settings: Homo sapiens
Protocol: (§3) Kinetic measurements of cell proliferation and cytotoxicity were carried out by using the IncuCyte^TM HD real time imaging system (Essen BioScience, Hertfordshire, United Kingdom). After seeding in a polylysine-coated 96 well-plates, K562 cells were treated with different concentrations of compound. This IncuCyte™ microscope permits the acquisition of automated phase contrast images. Individual images are processed by an imbedded contrast-based confluence algorithm, which compute monolayer confluence for each image and at each time point. Multiple images are collected per well and averaged to provide a representative statistical measure of confluence.

[1] = as above; type: cell-based, human; settings: human, K562 cells; K562, continuous exposure over 4-day period, area under curve; read-out: EC50AUC, cytotoxic effect
Protocol: as §3

MG63 cells = assay: MTT cell viability assay, MG63 cells; type: cell-based; settings: Homo sapiens, MG-63, MG63, 48 h, read-out: IC50 (μM) Mean ± SD
Protocol: as §1, §2

K562 tumor xenografts = K562 tumor xenografts in NOD-SCID mice; type: in vivo; settings: CM363 10 mg/kg i.p., 25 days, P = 0.004 day 4, P = 0.007 day 25
Protocol: Six weeks old female athymic mice (NOD-SCID), were purchased from Charles River River (Barcelona, Spain), and were housed in a specifically designed pathogen-free isolation facility as reported previously. […] The vehicle and CM363 treatments were administered via intraperitoneal injection (i.p.) every day except Saturday and Sunday. […] The study was conducted over a 25 days period. Caliper measurements of the tumor diameters were performed twice per week, and the tumor volume was estimated as the volume of an ellipse using the following formula: V = 4/3n × (a/2) × (b/2)^2, where a and b correspond to the longest and shortest diameter, respectively. Mice were sacrificed when their tumor diameters reached 2 cm, or when they became moribund. Differences in tumor volumes between control and treated group were evaluated using the Mann-Whitney test.

HCT-15 cells = assay: MTT cell viability assay, HCT-15 cells; type: cell-based; settings: Homo sapiens, HCT-15, 48 h, read-out: IC50 (μM) Mean ± SD
Protocol: as §1, §2

pTyr694-Stat5 (pYStat5) = assay: Immunoblotting of constitutive pYStat5 in K562 cells; type: cell-based; settings: Homo sapiens; K562, 3 μM CM363, 3 h
Protocol: Then, cells were rinsed with cold PBS-vanadate (1 mM) followed by preparation of whole lysis extract with RIPA (Pierce, Illinois, USA). Equal amounts of each sample were separated by SDS-PAGE and transfered onto nitrocellulose membranes. After being blocked with 1% BSA-1% Blotto (anti-phospho-antibodies) (Santa Cruz Biotechnology, CA, USA) or 5% blotto (anti-total-antibodies) (Santa Cruz Biotechnology, CA, USA) (both diluted in Tris buffered saline with 0.05% Tween 20), membranes were immunoblotted overnight at 4°C with dilution (1:1000) in the same buffer of blocking of primary phosphoprotein or total protein antibodies. […] To control for differences in loading and transfer efficiency across membranes, membranes were incubated with a monoclonal mouse anti-beta actin antibody (Santa Cruz Biotechnology, CA, USA). The phosphoprotein array analysis of K562 cells was carried out by using the Profiler Human Phospho-Kinase Array Kit ARY003B (R&D Systems, Minneapolis, MN, USA) according to the manufacturer`s instructions.

[2] = tested on: IM resistant K562 cells (K562-R); assay: Live-cell imaging (IncuCyte HD) of proliferation, IM resistant K562 cells; type: cell-based; settings: Homo sapiens, 96 h, 4-day period, area under curve, read-out: IC50AUC, cytostatic effect on cell growth
Protocol: as §3

N#Cc1ccc(C2C3=C(CCCC3=O)OC3=C2C(=O)c2ccccc2C3=O)cc1 (stereo not drawn) [CM363, 4-(1,6,11-trioxo-2,3,4,6,11,12-hexahydro-1H-benzo[b]xanthen-12-yl)benzonitrile] showed an IC50 (NCTC cells) of 1.1 ± 0.7 µM, an IC50 (K562 cells; 96 h, IM sensitive K562, continuous exposure over 4-day period, area under curve, read-out: IC50AUC, cytostatic effect on cell growth) of 0.6 ± 0.3 µM and an IC50 (K562 cells; K562, 2 h transient exposure, then additional 72 h without compound, read-out: IC50AUC, cytostatic effect after transient exposure) of 1.9 ± 0.5 µM. The EC50 at 4 days [1] was 1.1 ± 0.4 µM, the IC50 (MG63 cells) was 1.6 ± 0.9 µM and the “tumor growth (tumor volume) versus control group” value (K562 tumor xenografts) was “suppressed the growth; also recorded: pronounced, and statistically significant reduction”. The IC50 (HCT-15 cells) was 3.3 µM, the inhibition at 3 µM (pTyr694-Stat5 (pYStat5)) was 20% and the IC50 [2] was 0.5 ± 0.1 µM.
